Experimental data as given in patent US9283161B2, “Aqueous cosmetic compositions containing resveratrol solubilized in a liquid phosphate ester surfactant” (DSM IP ASSETS B.V., priority 2011, dated 2016).

Assay: Solubilisation of resveratrol in the self emulsifying cosmetic base (mixing at 30-40° C.)
Type: physicochemical
Conditions: Example 2, no co-emulsifier, continuous mixing at 30-40° C.
Experimental: A self emulsifying cosmetic base exempt of co-emulsifier was prepared by dissolving resveratrol in trilaureth-4 phosphate by continuous mixing at moderate temperature (30-40° C.). […] In all cases spontaneously an aqueous emulsion was formed which upon separation (after >1 week) could be easily re-formed by mere shaking.

appearance after dissolving resveratrol in trilaureth-4 phosphate: clear solution
Compound: Oc1ccc(/C=C/c2cc(O)cc(O)c2)cc1 [resveratrol]
